These molecules were tested on Staphylococcus epidermidis (assay: Beneficial skin bacteria affinity evaluation (challenge test)). Details: Experimental Example 1; ingredient in oil-in-water composition of Preparation Example 1; FIG. 2 / FIG. 3.
Type: cell-based
Description: As the beneficial bacteria serving as the affinity evaluation criterion of each composition prepared in Preparation Example 1, Staphylococcus epidermidis (S. epidermidis), a Gram positive bacterium, was selected. S. epidermidis is part of the skin flora present in large numbers in healthy skin, and is a representative beneficial bacterium that helps improve skin immunity and protect skin from external environmental factors by producing peptide antibiotics or PSM (phenol-soluble modulins) (Parlet, C. P., et al. (2019) Trends in microbiology, 27(6), 497-507). The evaluation of affinity for beneficial bacteria was performed by the challenge test method (Russell A. D., (2003), Int J Cosmet Sci., 25(3), 147-153) as follows.
Specifically, S. epidermidis was first incubated in TSA (Tryptic Soy Agar) medium at 37° C. for 24 hours, and then inoculated into 50.0 g of each composition prepared in Preparation Example 1 so as to be 1×10^6 CFU to 1×10^7 CFU (colony-forming units)/mL. After inoculation, the bacteria were evenly mixed in the composition by vortexing or using a sterilized stick. After inoculation, the mixture was stored at room temperature. In consideration of the product usage cycle, such as cosmetics, and the general usage patterns of these products, a maximum of 24 hours was set as the time required for examination. With this determination, 24 hours after inoculation, 1 mL of the composition inoculated with the bacteria was diluted stepwise using a 0.85% NaCl solution, 100 μL of each diluted solution was spread on TSA medium, incubation was conducted at 37° C. for 48 hours, and then CFUs were counted.
As the affinity evaluation criterion, the following “bacterial growth index*” parameter was used, and a composition having a bacterial growth index of −1.00 or more on day 1 after inoculation of bacteria was selected as a “cosmetic with beneficial skin bacteria-friendly properties” having an effect of maintaining beneficial skin bacteria or enhancing beneficial skin bacteria.
*Bacterial growth index=log10[{Number of viable bacteria (CFU/g)}/{Number of inoculated bacteria (CFU/g)}]

| Molecule | growth of beneficial bacteria (result in words) |
| --- | --- |
| CCOCCOCCOC(=O)C1CCC(C(=O)OCCOCCOCC)CC1 (centres unmarked) [bis-ethoxydiglycol cyclohexane 1,4-dicarboxylate] | inhibit the growth of beneficial bacteria |
| C=CCCCCCCCCC(=O)OCCCCCCC [heptyl undecylenate] | inhibit the growth of beneficial bacteria |
| inulin lauryl carbamate | did not inhibit the growth of beneficial bacteria |
| sodium dilauramidoglutamide lysine | did not inhibit the growth of beneficial bacteria |
| diethoxyethyl succinate | inhibit the growth of beneficial bacteria |

Reference: US20230381094A1, “Cosmetic Composition with Skin Microbiome-Friendly Properties” (LG Household & Health Care Ltd., priority 2022, published 2023)
